Data published in ChEMBL document CHEMBL3997794, “Design and synthesis of benzodiazepine analogs as isoform-selective human lysine deacetylase inhibitors” (Eur J Med Chem, 2017).

Columns and labels:
[1] = target: T1, Protein deacetylase HDAC6 (Homo sapiens, UniProt Q9UBN7); assay: Inhibition of human KDAC6 using FITC-labeled histone H4 acetylated peptide as substrate after 60 mins by fluorescence assay
T1 sequence (Q9UBN7 whole entry): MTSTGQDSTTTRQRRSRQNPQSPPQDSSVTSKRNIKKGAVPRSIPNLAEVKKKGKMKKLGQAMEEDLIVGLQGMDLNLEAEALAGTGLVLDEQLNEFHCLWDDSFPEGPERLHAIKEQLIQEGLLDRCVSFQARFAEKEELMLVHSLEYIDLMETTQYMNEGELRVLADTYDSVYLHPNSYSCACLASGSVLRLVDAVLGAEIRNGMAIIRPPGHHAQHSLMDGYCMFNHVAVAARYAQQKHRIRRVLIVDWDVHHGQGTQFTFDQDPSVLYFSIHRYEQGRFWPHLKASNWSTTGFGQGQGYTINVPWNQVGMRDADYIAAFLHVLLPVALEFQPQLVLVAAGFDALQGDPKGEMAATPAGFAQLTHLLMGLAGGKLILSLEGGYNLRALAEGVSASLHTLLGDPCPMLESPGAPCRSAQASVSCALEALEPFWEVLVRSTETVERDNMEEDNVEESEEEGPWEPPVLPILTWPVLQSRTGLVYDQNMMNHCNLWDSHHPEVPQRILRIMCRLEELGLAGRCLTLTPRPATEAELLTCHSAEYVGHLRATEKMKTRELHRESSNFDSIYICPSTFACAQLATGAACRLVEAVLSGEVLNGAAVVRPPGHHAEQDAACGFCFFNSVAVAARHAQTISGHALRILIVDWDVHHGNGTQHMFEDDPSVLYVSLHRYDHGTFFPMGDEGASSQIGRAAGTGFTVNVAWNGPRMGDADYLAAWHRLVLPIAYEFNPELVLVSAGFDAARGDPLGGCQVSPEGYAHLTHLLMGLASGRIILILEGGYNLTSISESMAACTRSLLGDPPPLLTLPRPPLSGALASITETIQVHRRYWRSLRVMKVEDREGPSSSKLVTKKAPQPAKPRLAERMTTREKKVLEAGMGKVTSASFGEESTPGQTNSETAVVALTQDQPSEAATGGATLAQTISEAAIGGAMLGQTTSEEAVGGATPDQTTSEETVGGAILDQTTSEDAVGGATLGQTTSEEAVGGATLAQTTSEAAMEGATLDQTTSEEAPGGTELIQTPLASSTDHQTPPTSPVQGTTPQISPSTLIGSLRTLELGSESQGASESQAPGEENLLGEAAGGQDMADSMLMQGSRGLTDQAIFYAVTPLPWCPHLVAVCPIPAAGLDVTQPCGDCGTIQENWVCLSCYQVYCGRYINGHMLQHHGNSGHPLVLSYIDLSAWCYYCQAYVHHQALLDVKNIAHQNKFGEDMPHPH

Histone deacetylase 3 [2] = target: T2, Histone deacetylase 3 (Homo sapiens, UniProt O15379); assay: Inhibition of human KDAC3 using FITC-labeled p53 acetylated peptide as substrate after 60 mins by fluorescence assay
[3] = target: T3, Protein deacetylase HDAC6 (Homo sapiens) (UniProt Q9UBN7); settings: at 30 µM
T3 sequence (whole entry): T1 sequence (Q9UBN7 whole entry)
Description: Inhibition of human KDAC6 at 30 uM using FITC-labeled histone H4 acetylated peptide as substrate after 60 mins by fluorescence assay relative to control

Histone deacetylase 8 = target: T4, Histone deacetylase 8 (Homo sapiens, UniProt Q9BY41); assay: Inhibition of human KDAC8 after 60 mins by fluorescence assay
T4 sequence (Q9BY41 whole entry): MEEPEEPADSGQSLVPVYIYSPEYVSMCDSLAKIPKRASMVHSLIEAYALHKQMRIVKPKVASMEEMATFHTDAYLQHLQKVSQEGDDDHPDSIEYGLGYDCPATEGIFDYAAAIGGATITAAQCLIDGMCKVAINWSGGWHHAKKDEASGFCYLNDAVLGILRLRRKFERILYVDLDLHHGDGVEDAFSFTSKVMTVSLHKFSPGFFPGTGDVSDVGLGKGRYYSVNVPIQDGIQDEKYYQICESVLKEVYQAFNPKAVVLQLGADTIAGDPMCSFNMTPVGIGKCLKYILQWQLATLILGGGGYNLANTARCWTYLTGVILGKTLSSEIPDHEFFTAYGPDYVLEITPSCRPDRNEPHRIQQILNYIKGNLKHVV

Histone deacetylase 1 [4] = target: T5, Histone deacetylase 1 (Homo sapiens, UniProt Q13547); assay: Inhibition of human KDAC1 using substrate A after 60 mins by fluorescence assay
Histone deacetylase 1 [5] = target: T5, Histone deacetylase 1; assay: Inhibition of human KDAC1 at 30 uM using substrate A after 60 mins by fluorescence assay relative to control
Histone deacetylase 3 [6] = target: T2, Histone deacetylase 3; assay: Inhibition of human KDAC3 at 30 uM using FITC-labeled p53 acetylated peptide as substrate after 60 mins by fluorescence assay relative to control
[7] = target: T6, Histone deacetylase 8 (Homo sapiens) (UniProt Q9BY41); assay: Inhibition of human KDAC8 at 30 uM after 60 mins by fluorescence assay relative to control
T6 sequence (whole entry): T4 sequence (Q9BY41 whole entry)

T2 sequence (O15379 whole entry): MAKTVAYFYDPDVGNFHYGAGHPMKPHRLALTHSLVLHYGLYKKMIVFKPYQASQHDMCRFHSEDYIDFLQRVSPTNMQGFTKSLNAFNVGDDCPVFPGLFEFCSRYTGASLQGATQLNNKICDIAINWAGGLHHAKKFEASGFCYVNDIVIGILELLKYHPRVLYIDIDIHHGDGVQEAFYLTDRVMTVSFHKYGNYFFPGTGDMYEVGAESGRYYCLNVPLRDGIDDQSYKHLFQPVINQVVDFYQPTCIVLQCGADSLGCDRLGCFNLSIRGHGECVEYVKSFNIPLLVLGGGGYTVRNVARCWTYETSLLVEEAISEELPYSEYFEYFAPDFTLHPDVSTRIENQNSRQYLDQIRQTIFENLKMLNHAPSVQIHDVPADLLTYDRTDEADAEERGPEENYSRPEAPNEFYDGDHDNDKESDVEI
T5 sequence (Q13547 whole entry): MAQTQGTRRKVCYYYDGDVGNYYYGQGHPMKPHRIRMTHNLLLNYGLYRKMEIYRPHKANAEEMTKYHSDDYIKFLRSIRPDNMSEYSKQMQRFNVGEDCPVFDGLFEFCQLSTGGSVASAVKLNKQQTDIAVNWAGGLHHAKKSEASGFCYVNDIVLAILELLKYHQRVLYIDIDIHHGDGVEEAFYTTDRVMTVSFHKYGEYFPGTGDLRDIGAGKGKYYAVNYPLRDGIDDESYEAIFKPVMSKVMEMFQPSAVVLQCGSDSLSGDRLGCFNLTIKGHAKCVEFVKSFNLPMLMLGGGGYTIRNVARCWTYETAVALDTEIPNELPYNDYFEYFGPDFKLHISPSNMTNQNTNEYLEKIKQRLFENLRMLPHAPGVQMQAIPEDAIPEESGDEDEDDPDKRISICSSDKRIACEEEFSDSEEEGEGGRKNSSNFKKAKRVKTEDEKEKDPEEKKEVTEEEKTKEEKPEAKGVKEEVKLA

Structure (SMILES)	IC50 [1]	IC50 (Histone deacetylase 3 [2])	inhibition [3]	IC50 (Histone deacetylase 8)	IC50 (Histone deacetylase 1 [4])	inhibition (Histone deacetylase 1 [5])	inhibition (Histone deacetylase 3 [6])	inhibition [7]
C[C@@H]1N=C(c2ccccc2)c2ccccc2NC1=O	> 30 µM	> 30 µM	0%	> 30 µM	> 30 µM	7.49%	0%	0%
COC(=O)CCCCN1C(=O)CN=C(c2ccccc2)c2ccccc21	> 30 µM	> 30 µM	0%	> 30 µM	> 30 µM	0.19%	0%	2.83%
CC[C@H](C)[C@@H]1N=C(c2ccccc2)c2ccccc2N(CCCCC(=O)OC)C1=O	> 30 µM	> 30 µM	0%	> 30 µM	> 30 µM	2.83%	0%	2.38%
C[C@@H](O)[C@@H]1N=C(c2ccccc2)c2ccccc2N(CCCCC(=O)NO)C1=O	11.6 µM	1.8 µM	70.1%	> 30 µM	11.2 µM	66.5%	94.2%	40.3%
O=C(CC[C@@H]1N=C(c2ccccc2)c2ccccc2NC1=O)NC(c1ccccc1)(c1ccccc1)c1ccccc1	> 30 µM	> 30 µM	0%	> 30 µM	> 30 µM	7.59%	0%	0%
COC(=O)CCCCN1C(=O)[C@@H](CSC(C)(C)C)N=C(c2ccccc2)c2ccccc21	> 30 µM	> 30 µM	0%	> 30 µM	> 30 µM	3.94%	0%	0%
COC(=O)CCCCN1C(=O)[C@H](Cc2ccccc2)N=C(c2ccccc2)c2ccccc21	> 30 µM	> 30 µM	6.49%	> 30 µM	> 30 µM	1.72%	1.85%	0%
O=C(CC[C@H]1N=C(c2ccccc2)c2ccccc2NC1=O)NO	> 30 µM	> 30 µM	19%	> 30 µM	> 30 µM	28%	29.4%	9.02%
O=C(CCCCN1C(=O)[C@H](CO)N=C(c2ccccc2)c2ccccc21)NO	6.35 µM	4.94 µM	74.4%	> 30 µM	> 30 µM	41%	85.9%	19.9%
COC(=O)CCCCN1C(=O)[C@H](Cc2cncn2C(c2ccccc2)(c2ccccc2)c2ccccc2)N=C(c2ccccc2)c2ccccc21	> 30 µM	> 30 µM	5.33%	> 30 µM	> 30 µM	4.66%	0%	12.1%
O=C(O)CCCCN1C(=O)[C@H](CC(=O)O)N=C(c2ccccc2)c2ccccc21	> 30 µM	> 30 µM	0%	> 30 µM	> 30 µM	0%	1.93%	0%
O=C(O)C[C@@H]1N=C(c2ccccc2)c2ccccc2N(CCCCC(=O)NO)C1=O	19.8 µM	12.6 µM	57.8%	> 30 µM	> 30 µM	47.9%	75.5%	39.4%
CC(C)(C)Oc1ccc(C[C@@H]2N=C(c3ccccc3)c3ccccc3N(CCCCC(=O)NO)C2=O)cc1	2.87 µM	0.85 µM	92.1%	3.3 µM	6.18 µM	82%	98.4%	89.9%
COC(=O)CCCCN1C(=O)[C@H](CCC(=O)OC(C)(C)C)N=C(c2ccccc2)c2ccccc21	> 30 µM	> 30 µM	0%	> 30 µM	> 30 µM	2.72%	0%	2.88%
CC(C)(C)OC(=O)CC[C@@H]1N=C(c2ccccc2)c2ccccc2N(CCCCC(=O)NO)C1=O	2.35 µM	1.03 µM	93.7%	26.1 µM	4.57 µM	83.8%	99.9%	52.5%
COC(=O)CCCCN1C(=O)[C@H](Cc2cc3ccccc3n2C(=O)OC(C)(C)C)N=C(c2ccccc2)c2ccccc21	> 30 µM	> 30 µM	0%	> 30 µM	> 30 µM	1.64%	0%	0%
CC(C)[C@@H]1N=C(c2ccccc2)c2ccccc2N(CCCCC(=O)NO)C1=O	1.35 µM	0.6 µM	95.5%	19.8 µM	5.27 µM	81.4%	97%	59.4%
NCCCC[C@@H]1N=C(c2ccccc2)c2ccccc2N(CCCCC(=O)NO)C1=O	12.1 µM	0.95 µM	73.4%	> 30 µM	6.54 µM	79.5%	99.1%	7.7%
CC(C)(C)OC(=O)CC[C@@H]1N=C(c2ccccc2)c2ccccc2NC1=O	> 30 µM	> 30 µM	0.01%	> 30 µM	> 30 µM	5.85%	0%	1.79%
O=C1Nc2ccccc2C(c2ccccc2)=N[C@H]1Cc1ccccc1	> 30 µM	> 30 µM	3.33%	> 30 µM	> 30 µM	0.91%	0%	0%
CC[C@H](C)[C@@H]1N=C(c2ccccc2)c2ccccc2NC1=O	> 30 µM	> 30 µM	1.82%	> 30 µM	> 30 µM	6.77%	0.56%	0%
Cc1c(C)c(S(=O)(=O)NC(=N)NCCC[C@@H]2N=C(c3ccccc3)c3ccccc3N(CCCCC(=O)NO)C2=O)c(C)c2c1OC(C)(C)C2	16.2 µM	4.29 µM	70.2%	> 30 µM	> 30 µM	39.1%	94.6%	22.6%
O=C(CCCNC(=O)CC[C@@H]1N=C(c2ccccc2)c2ccccc2NC1=O)NO	7.16 µM	5.17 µM	83.5%	> 30 µM	22.9 µM	55.8%	87.2%	33.6%
CC(C)(C)SC[C@H]1N=C(c2ccccc2)c2ccccc2NC1=O	> 30 µM	> 30 µM	2.05%	> 30 µM	> 30 µM	4.1%	2.88%	16.1%
